{
  "source": "patent EP0627489B1",
  "about": "“Methods and compositions for the treatment of malignancies in which a protein kinase is associated” (WASHINGTON RESEARCH FOUNDATION, priority 1990, dated 1991)",
  "type_in_all_cases": "biochemical",
  "key": {"TC.PTPase": {"molecular_target": "T1, TC.PTPase (Homo sapiens, UniProt P17706)", "T1 construct": "open reading frames of the full-length 48-kDa T cell PTPase (TC.PTPase); made in house; host or cells: Sf9 (Spodoptera frugiperda) insect cells, recombinant baculovirus (pVL 941)", "T1 sequence (P17706 1-415)": "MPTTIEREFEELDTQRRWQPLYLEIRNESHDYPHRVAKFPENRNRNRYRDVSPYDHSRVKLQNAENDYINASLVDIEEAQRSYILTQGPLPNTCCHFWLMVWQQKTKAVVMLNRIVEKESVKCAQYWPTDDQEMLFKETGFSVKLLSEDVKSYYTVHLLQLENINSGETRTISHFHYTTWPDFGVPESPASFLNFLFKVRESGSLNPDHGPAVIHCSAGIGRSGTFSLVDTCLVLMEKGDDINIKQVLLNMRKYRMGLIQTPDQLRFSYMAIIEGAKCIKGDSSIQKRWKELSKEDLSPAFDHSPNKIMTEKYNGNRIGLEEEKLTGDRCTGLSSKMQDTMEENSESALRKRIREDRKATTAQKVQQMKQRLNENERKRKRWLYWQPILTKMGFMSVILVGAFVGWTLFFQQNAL", "test": "Effectors of PTPase activity, full-length enzyme", "procedure": "(§1) Cell extracts or purified enzymes were assayed for tyrosine phosphatase using a method described by Tonks et al., in \"Purification of the Major Protein-tyrosine-phosphatases of Human Placenta,\" J. Biol. Chem. (263):6722-6730, 1988, based on measurement of the release of ^32P from labeled substrate. Since phosphorylation of reduced, carboxyamidomethylated, maleylated (RCM)-lysozyme is not stoichiometric, concentrations are expressed in terms of ^32P phosphotyrosine. Briefly, a mixture of 0.02 ml of PTPase (diluted to less than 1 unit/ml in Buffer A) and 0.02 ml of Buffer A was warmed at 30°C for 5 minutes. Buffer A is composed of 25 mM imidazole HCl […], 1 mg/ml BSA, 0.1% (v/v) β-mercaptoethanol. […] The reaction was terminated after approximately 10 minutes by addition of 0.18 ml of 20% (w/v) trichloroacetic acid and 0.02 ml of 25 mg/ml BSA, added as a carrier protein. The suspension was vortexed, allowed to stand on ice for 10 minutes, and centrifuged at 12,500 x g for 3 minutes. A 0.2-ml aliquot of the supernatant was added to 1 ml of Aquasol scintillant and counted in a Beckman LS7000 scintillation counter. […] Blank incubations were performed in which the PTPase was replaced by Buffer A, and total ^32P was determined by counting 0.02 ml of the substrate. […] One unit of PTPase activity is defined as that amount which releases 1 nmol of phosphate/min. […]"}, "TCΔC11.PTPase [1]": {"molecular_target": "T2, TCΔC11.PTPase (Homo sapiens, UniProt P17706)", "T2 construct": "a truncated PTPase in which an 11-kDa segment was deleted from the carboxyl end (TCΔC11.PTPase-transfected cells); made in house; host or cells: Sf9 (Spodoptera frugiperda) insect cells, recombinant baculovirus (pVL 941)", "T2 sequence (P17706 1-317 limits assumed)": "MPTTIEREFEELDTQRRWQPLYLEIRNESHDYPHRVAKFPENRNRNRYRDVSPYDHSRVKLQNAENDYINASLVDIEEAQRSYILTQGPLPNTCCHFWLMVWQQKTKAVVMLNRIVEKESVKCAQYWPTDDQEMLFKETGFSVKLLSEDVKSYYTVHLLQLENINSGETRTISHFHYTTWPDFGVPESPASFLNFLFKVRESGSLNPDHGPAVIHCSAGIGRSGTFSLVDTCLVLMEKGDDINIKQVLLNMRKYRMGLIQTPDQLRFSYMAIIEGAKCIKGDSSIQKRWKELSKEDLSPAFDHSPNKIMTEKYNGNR", "test": "Effectors of PTPase activity, truncated enzyme"}, "TCΔC11.PTPase [2]": {"molecular_target": "T2, TCΔC11.PTPase", "test": "Effectors of PTPase activity, truncated enzyme", "conditions": "substrate RCML 5 µM", "procedure": "as §1"}, "[3]": {"conditions": "effector 2 mM, substrate MBP 5 µM"}, "[4]": {"conditions": "effector 100 µM, substrate MBP 5 µM"}, "[5]": {"conditions": "effector 10 µM, substrate MBP 5 µM"}, "[6]": {"conditions": "effector 10 µM, substrate RCML 5 µM"}, "[7]": {"conditions": "effector 0.01 µM, substrate MBP 5 µM"}, "[8]": {"conditions": "effector 1 µM, substrate MBP 5 µM"}},
  "note": "Where “and” joins values, the source holds several entries; their conditions need not be identical. Equal values may be shown once. Read-outs that look alike come from different tables or passages of the source.",
  "data": [
    {"compound": "NCCCNCCCCNCCCN", "note": "[spermine]", "values": [
      {"measurement": "Activity, percentage of phosphate released relative to control in which the effector was omitted", "setting": "TC.PTPase", "result": 62, "unit": "percentage"},
      {"measurement": "activation of the full-length enzyme", "setting": "TC.PTPase", "result": "up to sevenfold"},
      {"measurement": "remaining activity at 2000 µM", "setting": "TC.PTPase; 10 min, read-out: Activity, percentage of phosphate released relative to control in which the effector was omitted", "result": 727, "unit": "%"},
      {"measurement": "Activity, percentage of phosphate released relative to control in which the effector was omitted", "setting": "TCΔC11.PTPase [1]", "result": "110 percentage and 97 percentage"}
    ]},
    {"compound": "NCCCCNCCCN", "note": "[spermidine]", "values": [
      {"measurement": "Activity, percentage of phosphate released relative to control in which the effector was omitted", "setting": "TC.PTPase; [3]", "result": 43, "unit": "percentage"},
      {"measurement": "Activity, percentage of phosphate released relative to control in which the effector was omitted", "setting": "TC.PTPase; effector 2 mM, substrate RCML 5 µM", "result": 249, "unit": "percentage"},
      {"measurement": "Activity, percentage of phosphate released relative to control in which the effector was omitted", "setting": "TCΔC11.PTPase [2]; effector 2 mM", "result": 132, "unit": "percentage"},
      {"measurement": "Activity, percentage of phosphate released relative to control in which the effector was omitted", "setting": "TCΔC11.PTPase [1]; [3]", "result": 108, "unit": "percentage"}
    ]},
    {"compound": "vanadate", "values": [
      {"measurement": "Activity, percentage of phosphate released relative to control in which the effector was omitted", "setting": "TC.PTPase; [4]", "result": 0, "unit": "percentage"},
      {"measurement": "Activity, percentage of phosphate released relative to control in which the effector was omitted", "setting": "TC.PTPase; effector 100 µM, substrate RCML 5 µM", "result": 0, "unit": "percentage"},
      {"measurement": "Activity, percentage of phosphate released relative to control in which the effector was omitted", "setting": "TCΔC11.PTPase [2]; effector 100 µM", "result": 2, "unit": "percentage"},
      {"measurement": "Activity, percentage of phosphate released relative to control in which the effector was omitted", "setting": "TCΔC11.PTPase [1]; [4]", "result": 1, "unit": "percentage"}
    ]},
    {"compound": "O=C(O)CN(CCN(CC(=O)O)CC(=O)O)CC(=O)O", "note": "[EDTA]", "values": [
      {"measurement": "Activity, percentage of phosphate released relative to control in which the effector was omitted", "setting": "TC.PTPase", "result": "124 percentage and 137 percentage"},
      {"measurement": "Activity, percentage of phosphate released relative to control in which the effector was omitted", "setting": "TCΔC11.PTPase [1]", "result": "170 percentage and 150 percentage"}
    ]},
    {"compound": "molybdate", "values": [
      {"measurement": "Activity, percentage of phosphate released relative to control in which the effector was omitted", "setting": "TC.PTPase; [5]", "result": 1, "unit": "percentage"},
      {"measurement": "Activity, percentage of phosphate released relative to control in which the effector was omitted", "setting": "TC.PTPase; [6]", "result": 0, "unit": "percentage"},
      {"measurement": "Activity, percentage of phosphate released relative to control in which the effector was omitted", "setting": "TCΔC11.PTPase [2]; effector 10 µM", "result": 2, "unit": "percentage"},
      {"measurement": "Activity, percentage of phosphate released relative to control in which the effector was omitted", "setting": "TCΔC11.PTPase [1]; [5]", "result": 2, "unit": "percentage"}
    ]},
    {"compound": "poly Glu:Tyr 4:1", "values": [
      {"measurement": "Activity, percentage of phosphate released relative to control in which the effector was omitted", "setting": "TC.PTPase; [7]", "result": 119, "unit": "percentage"},
      {"measurement": "Activity, percentage of phosphate released relative to control in which the effector was omitted", "setting": "TC.PTPase; effector 0.01 µM, substrate RCML 5 µM", "result": 66, "unit": "percentage"},
      {"measurement": "Activity, percentage of phosphate released relative to control in which the effector was omitted", "setting": "TC.PTPase; [8]", "result": 133, "unit": "percentage"},
      {"measurement": "Activity, percentage of phosphate released relative to control in which the effector was omitted", "setting": "TC.PTPase; effector 1 µM, substrate RCML 5 µM", "result": 18, "unit": "percentage"},
      {"measurement": "Activity, percentage of phosphate released relative to control in which the effector was omitted", "setting": "TC.PTPase; [5]", "result": 58, "unit": "percentage"},
      {"measurement": "Activity, percentage of phosphate released relative to control in which the effector was omitted", "setting": "TC.PTPase; [6]", "result": 6, "unit": "percentage"},
      {"measurement": "Activity, percentage of phosphate released relative to control in which the effector was omitted", "setting": "TCΔC11.PTPase [2]; effector 0.01 µM", "result": 70, "unit": "percentage"},
      {"measurement": "Activity, percentage of phosphate released relative to control in which the effector was omitted", "setting": "TCΔC11.PTPase [2]; effector 1 µM", "result": 17, "unit": "percentage"},
      {"measurement": "Activity, percentage of phosphate released relative to control in which the effector was omitted", "setting": "TCΔC11.PTPase [2]; effector 10 µM", "result": 11, "unit": "percentage"},
      {"measurement": "Activity, percentage of phosphate released relative to control in which the effector was omitted", "setting": "TCΔC11.PTPase [1]; [7]", "result": 102, "unit": "percentage"},
      {"measurement": "Activity, percentage of phosphate released relative to control in which the effector was omitted", "setting": "TCΔC11.PTPase [1]; [8]", "result": 104, "unit": "percentage"},
      {"measurement": "Activity, percentage of phosphate released relative to control in which the effector was omitted", "setting": "TCΔC11.PTPase [1]; [5]", "result": 127, "unit": "percentage"}
    ]}
  ]
}
